Results on 13 compounds are retold here after patent US20250186541A1, “DLL3 TARGETING PEPTIDES AND CONSTRUCTS THEREOF” (MARIANA ONCOLOGY INC., priority 2023, published 2025).

The assay concerns the target T1, human DLL3 (Homo sapiens, UniProt Q9NYJ7).
T1 construct: biotin (biotinylated)
T1 sequence (Q9NYJ7 27-618): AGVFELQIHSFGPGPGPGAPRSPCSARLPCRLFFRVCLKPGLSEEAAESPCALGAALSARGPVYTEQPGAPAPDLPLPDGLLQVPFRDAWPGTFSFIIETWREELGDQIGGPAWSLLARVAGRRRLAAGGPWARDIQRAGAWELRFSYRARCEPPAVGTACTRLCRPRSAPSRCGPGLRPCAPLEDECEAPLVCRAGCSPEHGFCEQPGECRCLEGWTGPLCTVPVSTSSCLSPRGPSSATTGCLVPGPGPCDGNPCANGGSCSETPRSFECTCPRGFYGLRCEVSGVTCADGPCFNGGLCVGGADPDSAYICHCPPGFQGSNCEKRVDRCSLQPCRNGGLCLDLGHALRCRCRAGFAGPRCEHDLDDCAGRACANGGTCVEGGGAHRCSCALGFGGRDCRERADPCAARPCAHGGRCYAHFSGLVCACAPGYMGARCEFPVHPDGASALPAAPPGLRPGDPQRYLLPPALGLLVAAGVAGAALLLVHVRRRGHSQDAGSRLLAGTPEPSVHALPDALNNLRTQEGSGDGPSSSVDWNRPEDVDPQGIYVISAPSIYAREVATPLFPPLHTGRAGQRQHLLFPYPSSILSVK
As to the kind of experiment: Affinity determination by Surface Plasmon Resonance (SPR), Biacore, 1:1 binding model. The settings on record: biotinylated human DLL3 on streptavidin chip, 25° C.; NB = nonbinding. As for the experimental part:
Example 3. Binding Affinity of Targeting Moieties Polypeptides to DLL3 Affinity Determination by Surface Plasmon Resonance (SPR)
SPR studies were performed on the compounds disclosed herein using the following protocol. […] Biotinylated target ligand human DLL3 was immobilized on a streptavidin sensor chip. A reference surface was set up for nonspecific binding and refractive index changes. For analysis of the kinetics of interactions, varying concentrations of samples were injected at a flow rate of 100 μL/min using running buffer containing 20 mM phosphate buffer with 2.7 mM KCl, 137 mM NaCl, 0.05% Surfactant P20 and 2% DMSO. Sensorgram curves were fitted with 1:1 binding model, and affinity and kinetic parameters were obtained using Biacore Insight evaluation 4.0. software.

Molecules are shown by their SMILES. Bridge positions count the residues as written; N and C are the ends. Square brackets hold non-standard residues; d marks the D form. Peptide text beside a SMILES is read from it. * marks the point of attachment. DOTA = O=C(O)CN1CCN(CC(=O)O)CCN(CC(=O)*)CCN(CC(=O)O)CC1; Phe(4-CF3) = N[C@@H](Cc1ccc(C(F)(F)F)cc1)C(=O)O; Phe(4-COOH) = N[C@@H](Cc1ccc(C(=O)O)cc1)C(=O)O; Bip = N[C@@H](Cc1ccc(-c2ccccc2)cc1)C(=O)O; Phe(3-F) = N[C@@H](Cc1cccc(F)c1)C(=O)O; Phe(4-F) = N[C@@H](Cc1ccc(F)cc1)C(=O)O; 1Nal = N[C@@H](Cc1cccc2ccccc12)C(=O)O; Carboxymethyl = O=C(O)C*; Nva = CCC[C@H](N)C(=O)O; Ahx = NCCCCCC(=O)O Bounds are passed on as bounds.

The compound `CSCC[C@H](NC(C)=O)C(=O)N[C@@H](CO)C(=O)N[C@@H](CC(=O)O)C(=O)N[C@H]1CSSC[C@@H](C(=O)N2CCC[C@H]2C(=O)N[C@@H](Cc2ccccc2)C(=O)N[C@@H](CC(=O)O)C(N)=O)NC(=O)[C@H](CC(N)=O)NC(=O)[C@H](Cc2c[nH]c3ccccc23)NC(=O)[C@H](CCC(N)=O)NC(=O)[C@H](C)NC(=O)[C@H](Cc2c[nH]c3ccccc23)NC1=O` [compound 23, Ac-M-S-D-C(3)-W-(L-Ala)-Q-W-N-C(3)-P-F-D-CONH2] (Ac-MSDCWAQWNCPFD-NH2; disulfide 4-10) returned a Kd above 0.1 µM.

Consider `CSCC[C@H](NC(C)=O)C(=O)N[C@@H](CO)C(=O)N[C@@H](CC(=O)O)C(=O)N[C@H]1CSSC[C@@H](C(=O)N2CCC[C@H]2C(=O)N[C@@H](Cc2ccccc2)C(=O)N[C@@H](CC(=O)O)C(N)=O)NC(=O)[C@H](C)NC(=O)[C@H](Cc2c[nH]c3ccccc23)NC(=O)[C@H](CCC(N)=O)NC(=O)[C@H](CC(C)C)NC(=O)[C@H](Cc2c[nH]c3ccccc23)NC1=O` [compound 26, Ac-M-S-D-C(3)-W-L-Q-W-(L-Ala)-C(3)-P-F-D-CONH2] (Ac-MSDCWLQWACPFD-NH2; disulfide 4-10), for which the Kd was above 0.1 µM.

As for `CSCC[C@H](NC(C)=O)C(=O)N[C@@H](CO)C(=O)N[C@@H](CC(=O)O)C(=O)N[C@H]1CSSC[C@@H](C(=O)N[C@@H](C)C(=O)N[C@@H](Cc2ccccc2)C(=O)N[C@@H](CC(=O)O)C(N)=O)NC(=O)[C@H](CC(N)=O)NC(=O)[C@H](Cc2c[nH]c3ccccc23)NC(=O)[C@H](CCC(N)=O)NC(=O)[C@H](CC(C)C)NC(=O)[C@H](Cc2c[nH]c3ccccc23)NC1=O` [compound 27, Ac-M-S-D-C(3)-W-L-Q-W-N-C(3)-(L-Ala)-F-D-CONH2] (Ac-MSDCWLQWNCAFD-NH2; disulfide 4-10), the Kd was above 0.1 µM.

`CSCC[C@H](NC(C)=O)C(=O)N[C@@H](CO)C(=O)N[C@@H](CC(=O)O)C(=O)N[C@H]1CSSC[C@@H](C(=O)N2CCC[C@H]2C(=O)N[C@@H](C)C(=O)N[C@@H](CC(=O)O)C(N)=O)NC(=O)[C@H](CC(N)=O)NC(=O)[C@H](Cc2c[nH]c3ccccc23)NC(=O)[C@H](CCC(N)=O)NC(=O)[C@H](CC(C)C)NC(=O)[C@H](Cc2c[nH]c3ccccc23)NC1=O` [compound 28, Ac-M-S-D-C(3)-W-L-Q-W-N-C(3)-P-(L-Ala)-D-CONH2] (Ac-MSDCWLQWNCPAD-NH2; disulfide 4-10) had a Kd above 0.1 µM.

In turn, `CSCC[C@H](NC(C)=O)C(=O)N[C@@H](CO)C(=O)N[C@@H](CC(=O)O)C(=O)N[C@H]1CSSC[C@@H](C(=O)N2CCC[C@H]2C(=O)N[C@@H](Cc2ccccc2)C(=O)N[C@@H](C)C(N)=O)NC(=O)[C@H](CC(N)=O)NC(=O)[C@H](Cc2c[nH]c3ccccc23)NC(=O)[C@H](CCC(N)=O)NC(=O)[C@H](CC(C)C)NC(=O)[C@H](Cc2c[nH]c3ccccc23)NC1=O` [compound 29, Ac-M-S-D-C(3)-W-L-Q-W-N-C(3)-P-F-(L-Ala)-CONH2] (Ac-MSDCWLQWNCPFA-NH2; disulfide 4-10) registered a Kd above 0.1 µM.

`CCC[C@H](NC(C)=O)C(=O)N[C@@H](CO)C(=O)N[C@@H](CC(=O)O)C(=O)N[C@H]1CSSC[C@@H](C(=O)N2CCC[C@H]2C(=O)N[C@@H](Cc2ccccc2)C(=O)N[C@@H](CC(=O)O)C(=O)N[C@H](CCCCNC(=O)CN2CCN(CC(=O)O)CCN(CC(=O)O)CCN(CC(=O)O)CC2)C(N)=O)NC(=O)[C@H](CC(N)=O)NC(=O)[C@H](Cc2c[nH]c3ccccc23)NC(=O)[C@H](CCC(N)=O)NC(=O)[C@H](CC(C)C)NC(=O)[C@H](Cc2c[nH]c3ccccc23)NC1=O` [compound 32, Ac-Nva-S-D-C(3)-W-L-Q-W-N-C(3)-P-F-D-D-Lys(DOTA)-CONH2] (Ac-[Nva]SDCWLQWNCPFD[dK](DOTA)-NH2; disulfide 4-10) gave an equilibrium dissociation constant (Kd) of 0.028 µM.

The compound `CC(C)C[C@@H]1NC(=O)[C@H](Cc2c[nH]c3ccccc23)NC(=O)[C@@H](NC(=O)[C@H](CC(=O)O)NC(=O)[C@H](CO)NC(=O)CCCCCNC(=O)CN2CCN(CC(=O)O)CCN(CC(=O)O)CCN(CC(=O)O)CC2)CSSC[C@@H](C(=O)N2CCC[C@H]2C(=O)N[C@@H](Cc2ccc(F)cc2)C(=O)N[C@@H](CC(=O)O)C(N)=O)NC(=O)[C@H](CC(N)=O)NC(=O)[C@H](Cc2c[nH]c3ccccc23)NC(=O)[C@H](CCC(N)=O)NC1=O` [compound 33, DOTA-Ahx-S-D-C(3)-W-L-Q-W-N-C(3)-P-(4Fluoro-F)-D-CONH2] ({DOTA-Ahx}-SDCWLQWNCP[Phe(4-F)]D-NH2; disulfide 3-9) yielded a dissociation constant (Kd) above 0.3 µM.

Compound `CC(C)C[C@@H]1NC(=O)[C@H](Cc2c[nH]c3ccccc23)NC(=O)[C@@H](NC(=O)[C@H](CC(=O)O)NC(=O)[C@H](CO)NC(=O)CCCCCNC(=O)CN2CCN(CC(=O)O)CCN(CC(=O)O)CCN(CC(=O)O)CC2)CSSC[C@@H](C(=O)N2CCC[C@H]2C(=O)N[C@@H](Cc2ccc(C(F)(F)F)cc2)C(=O)N[C@@H](CC(=O)O)C(N)=O)NC(=O)[C@H](CC(N)=O)NC(=O)[C@H](Cc2c[nH]c3ccccc23)NC(=O)[C@H](CCC(N)=O)NC1=O` [compound 34, DOTA-Ahx-S-D-C(3)-W-L-Q-W-N-C(3)-P-(4CF3-F)-D-CONH2] ({DOTA-Ahx}-SDCWLQWNCP[Phe(4-CF3)]D-NH2; disulfide 3-9) had a Kd above 0.3 µM.

Turning to `CC(C)C[C@@H]1NC(=O)[C@H](Cc2c[nH]c3ccccc23)NC(=O)[C@@H](NC(=O)[C@H](CC(=O)O)NC(=O)[C@H](CO)NC(=O)CCCCCNC(=O)CN2CCN(CC(=O)O)CCN(CC(=O)O)CCN(CC(=O)O)CC2)CSSC[C@@H](C(=O)N2CCC[C@H]2C(=O)N[C@@H](Cc2ccc(C(=O)O)cc2)C(=O)N[C@@H](CC(=O)O)C(N)=O)NC(=O)[C@H](CC(N)=O)NC(=O)[C@H](Cc2c[nH]c3ccccc23)NC(=O)[C@H](CCC(N)=O)NC1=O` [compound 35, DOTA-Ahx-S-D-C(3)-W-L-Q-W-N-C(3)-P-(4COOH-F)-D-CONH2] ({DOTA-Ahx}-SDCWLQWNCP[Phe(4-COOH)]D-NH2; disulfide 3-9), the dissociation constant (Kd) is above 0.1 µM.

In the case of `CC(C)C[C@@H]1NC(=O)[C@H](Cc2c[nH]c3ccccc23)NC(=O)[C@@H](NC(=O)[C@H](CC(=O)O)NC(=O)[C@H](CO)NC(=O)CCCCCNC(=O)CN2CCN(CC(=O)O)CCN(CC(=O)O)CCN(CC(=O)O)CC2)CSSC[C@@H](C(=O)N2CCC[C@H]2C(=O)N[C@@H](Cc2cccc(F)c2)C(=O)N[C@@H](CC(=O)O)C(N)=O)NC(=O)[C@H](CC(N)=O)NC(=O)[C@H](Cc2c[nH]c3ccccc23)NC(=O)[C@H](CCC(N)=O)NC1=O` [compound 36, DOTA-Ahx-S-D-C(3)-W-L-Q-W-N-C(3)-P-(3Fluoro-F)-D-CONH2] ({DOTA-Ahx}-SDCWLQWNCP[Phe(3-F)]D-NH2; disulfide 3-9), the Kd worked out at 0.016 µM.

In the case of `CC(C)C[C@@H]1NC(=O)[C@H](Cc2c[nH]c3ccccc23)NC(=O)[C@@H](NC(=O)[C@H](CC(=O)O)NC(=O)[C@H](CO)NC(=O)CCCCCNC(=O)CN2CCN(CC(=O)O)CCN(CC(=O)O)CCN(CC(=O)O)CC2)CSSC[C@@H](C(=O)N2CCC[C@H]2C(=O)N[C@@H](Cc2ccc(OCC(=O)O)cc2)C(=O)N[C@@H](CC(=O)O)C(N)=O)NC(=O)[C@H](CC(N)=O)NC(=O)[C@H](Cc2c[nH]c3ccccc23)NC(=O)[C@H](CCC(N)=O)NC1=O` [compound 37, DOTA-Ahx-S-D-C(3)-W-L-Q-W-N-C(3)-P-(4-CMF)-D-CONH2] ({DOTA-Ahx}-SDCWLQWNCPY(Carboxymethyl)D-NH2; disulfide 3-9), the Kd was above 0.1 µM.

Regarding `CC(C)C[C@@H]1NC(=O)[C@H](Cc2c[nH]c3ccccc23)NC(=O)[C@@H](NC(=O)[C@H](CC(=O)O)NC(=O)[C@H](CO)NC(=O)CCCCCNC(=O)CN2CCN(CC(=O)O)CCN(CC(=O)O)CCN(CC(=O)O)CC2)CSSC[C@@H](C(=O)N2CCC[C@H]2C(=O)N[C@@H](Cc2ccc(-c3ccccc3)cc2)C(=O)N[C@@H](CC(=O)O)C(N)=O)NC(=O)[C@H](CC(N)=O)NC(=O)[C@H](Cc2c[nH]c3ccccc23)NC(=O)[C@H](CCC(N)=O)NC1=O` [compound 38, DOTA-Ahx-S-D-C(3)-W-L-Q-W-N-C(3)-P-(BIP)-D-CONH2] ({DOTA-Ahx}-SDCWLQWNCP[Bip]D-NH2; disulfide 3-9), the Kd is above 0.3 µM.

As to `CC(C)C[C@@H]1NC(=O)[C@H](Cc2c[nH]c3ccccc23)NC(=O)[C@@H](NC(=O)[C@H](CC(=O)O)NC(=O)[C@H](CO)NC(=O)CCCCCNC(=O)CN2CCN(CC(=O)O)CCN(CC(=O)O)CCN(CC(=O)O)CC2)CSSC[C@@H](C(=O)N2CCC[C@H]2C(=O)N[C@@H](Cc2cccc3ccccc23)C(=O)N[C@@H](CC(=O)O)C(N)=O)NC(=O)[C@H](CC(N)=O)NC(=O)[C@H](Cc2c[nH]c3ccccc23)NC(=O)[C@H](CCC(N)=O)NC1=O` [compound 39, DOTA-Ahx-S-D-C(3)-W-L-Q-W-N-C(3)-P-(1Nal)-D-CONH2] ({DOTA-Ahx}-SDCWLQWNCP[1Nal]D-NH2; disulfide 3-9), the Kd was above 0.1 µM.
